The text below walks through data of patent publication US20250186436A1 (4E Therapeutics, Inc., priority 2021, published 2025).

Data set [1] can be described thus: PK study in male Sprague-Dawley rats dosed once per day for five days, PO 10 mg/kg, 0.5% HPMC (Example 7). In kind it is in vivo. Particulars: 0.5% HPMC suspension.
For a further data set, the system named is Wistar rats. Description: Intravenous self-administration with oxycodone and saline regimen. Format: in vivo. The note with it: rat, in vivo. As to the method: Ten male and eleven female Wistar rats (Charles River, Hollister, CA) were used in this study. Rats were housed in groups of 2-3 per cage prior to surgery, and then individually housed to protect their catheters, in a temperature-controlled (22° C.) vivarium on a 12/12h light/dark cycle (lights off at 8:00 AM) with ad libitum access to food and water. The rats acclimated to the animal facility for at least 7 days before surgery. All procedures adhered to the National Institutes of Health Guide for the Care and Use of Laboratory Animals and were approved by the Institutional Animal Care and Use Committee of The Scripps Research Institute.
For surgery, rats were anesthetized with 2 to 3% isoflurane. They were implanted with a silastic catheter (0.3 mm i.d.×0.64 mm o.d.; Dow Corning Co. Midland, MI) into the right external jugular vein under aseptic conditions. The distal end of the catheter was subcutaneously threaded to the back of the rat where it exited via a metal guide cannula (22G; Plastics One Inc., Roanoke, VA) that was anchored at the back of the rat and closed with a small plastic cap and metal cover cap to keep the inside part of the catheter clean and protected (Caine S B, et al. “Effects of dopamine D-1 and D-2 antagonists on cocaine self-administration under different schedules of reinforcement in the rat” J Pharmacol Exp Ther. 270(1):209-18 (1994); Wee S, et al. “Effects of dose and session duration on cocaine self-administration in rats” J Pharmacol Exp Ther. 320(3):1134-43 (2007); Zorrilla E P, et al. “Extended access cocaine self-administration differentially activates dorsal raphe and amygdala corticotropin-releasing factor systems in rats” Addict Biol. 17(2):300-8 (2012); Valtcheva M V, et al. “Surgical extraction of human dorsal root ganglia from organ donors and preparation of primary sensory neuron cultures” Nat Protoc. 11:1877-1888 (2016)). All incisions were closed using veterinary tissue adhesive. After surgery, rats were given analgesic (Flunixin, 2.5 mg/kg s.c.).
Rats were allowed 5-7 days for recovery prior to self-administration.
The patency of catheters in the rats was tested using an ultra-short-acting barbiturate methohexital sodium (Brevital, Eli Lilly, Indianapolis, 1N, 10 mg/mL, 2 mg/rat) every 10-12 days during the study. Generally, a total loss of muscle tone within 3 s after a methohexital sodium injection indicates the patency of a catheter. Any animal that failed the test was excluded from the study.
During experimental sessions, each rat was placed in a standard operant chamber, which was placed in a light- and sound-attenuating cubicle (28×26×20 cm; Med Associates Inc., St. Albans, VT). The front door and the back wall of the chamber were made of transparent plastic, and the other walls were opaque metal. The chamber had two retractable response levers mounted on one side of the opaque walls. A stimulus light was mounted above each lever. A drug injection was delivered by a syringe pump (Razel Scientific Instruments, Georgia, VT) located on top of the cubicle. Experimental sessions were controlled and recorded by a PC computer with custom interface and software in the experimental room.
Experimental sessions were conducted once a day, 5-7 days a week during the dark (active) cycle. After being flushed with 0.9% saline, a rat's indwelling catheter was connected to a tube that exited the chamber through a metal spring and a swivel and was connected to a syringe pump. After the drug delivery system was connected to the rat, the chamber was closed, and the 2 hr session was started immediately. The start of a session was signaled by the presentation of two response levers into the chamber. […] During an injection, stimulus lights above both levers were illuminated and lasted throughout a time-out period (20 s) that followed each injection. Pressing the left lever was counted but had no other programmed consequences. […]

Data set [2] can be described thus: Plasma and brain concentrations, brain:plasma ratio in rats 2 hr after single PO 1 mg/kg (Example 5). Format: in vivo. Particulars: for concentration at 2 hr: po. The procedure: Table 15 provides plasma and brain concentrations at 2 hr after a single P0 dose of 1 mg/kg.
The target of data set [3] is T1, recombinant full length human kinase MNK2 (Homo sapiens, UniProt Q9HBH9).
T1 construct: the recombinant full length human kinase MNK2; made in house; host or cells: insect cells
T1 sequence (Q9HBH9 whole entry): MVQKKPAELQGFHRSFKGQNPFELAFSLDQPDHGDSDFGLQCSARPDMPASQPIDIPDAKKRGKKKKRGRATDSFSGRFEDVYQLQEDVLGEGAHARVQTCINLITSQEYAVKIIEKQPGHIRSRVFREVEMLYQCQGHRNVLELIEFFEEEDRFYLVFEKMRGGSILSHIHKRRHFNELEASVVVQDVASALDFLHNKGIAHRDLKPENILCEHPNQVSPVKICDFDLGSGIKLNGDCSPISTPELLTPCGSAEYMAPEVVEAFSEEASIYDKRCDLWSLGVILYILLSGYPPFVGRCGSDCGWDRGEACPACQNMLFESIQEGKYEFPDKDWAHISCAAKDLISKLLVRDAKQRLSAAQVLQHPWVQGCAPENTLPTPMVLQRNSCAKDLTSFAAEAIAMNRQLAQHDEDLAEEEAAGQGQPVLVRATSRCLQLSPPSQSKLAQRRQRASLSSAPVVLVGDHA
Description: MNK2 radiometric kinase activity assay. Format: biochemical. The note with it: radiometric activity assay; read-out: MNK2.

The test system of data set [4] is eIF4E phosphorylation at Serine 209 in HEK 293 cells. Put plainly: eIF4E phosphorylation in HEK 293 cells (phospho-specific antibody, fluorescent plate reader).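 Note: Well-level p-eIF4E immunofluorescence normalized to DAPI signal, expressed as percent eIF4E phosphorylation, with IC50 derived from concentration-response curves.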 In kind it is cell-based. The note with it: Homo sapiens, HEK293; eIF4E phosphorylation at Serine 209, 2 hours exposure; read-out: HEK 293 cell.

Several values for one entry are separate records, joined by “and”; a condition that tells them apart may be missing. Equal entries are not always repeated. Where two headings read alike, the source gives them in different places. Where only a bound is given, the exact number is not on record here.

A word on the MRT inf: it is a mean duration of stay, worked out from the concentration-time curve. The compound `Cc1cc(Nc2cc(N)ncn2)c(=O)n2c1C(=O)NC21CCC2(CC2)CC1` [4ET-03-053, 6″-((6-Aminopyrimidin-4-yl)amino)-8″-methyl-2″H-dispiro[cyclopropane-1,1′-cyclohexane-4′,3″-imidazo[1,5-a]pyridine]-1″,5″-dione] showed an MRT inf in data set [1] (male, Sprague-Dawley, rat, in vivo, po, 10 mg/kg, single PO 10 mg/kg dose, mean (n = 3)) of 7.43 h. In addition, the AUC(0-inf) in data set [1] (male, Sprague-Dawley, rat, in vivo, po, 10 mg/kg, single PO 10 mg/kg, read-out: total systemic exposure (AUCinf)) is 272 µg·h/mL. In addition, the t1/2 in data set [1] (single PO 10 mg/kg dose, individual animals, 10 mg/kg) was 4.83 h and 5.11 h. Besides, in data set [1] (single PO 10 mg/kg), the “time to peak plasma concentration” value is not above 2 h. In addition, the results for the “Mean Difference, Šídák's multiple comparisons test” value in the data set with Wistar rats, in the data set with Wistar rats (0.05 mg/kg) and in the data set with Wistar rats (0.15 mg/kg) were 1.500, −8.041 and 5.441, respectively. In addition, the “Summary, Šídák's multiple comparisons test” value with Wistar rats, in the data set on Wistar rats (0.05 mg/kg) and with Wistar rats (0.15 mg/kg) was “ns” each time. For the same compound, the addictive potential result in the data set on Wistar rats is recorded as “negligible addictive potential”. Also, the “numbers of infusions, multiple comparisons test: 0.05 mg/kg 4ET-03-053 and subsequent oxycodone” value in the data set on Wistar rats was “significant differences”. The “numbers of infusions, multiple comparisons test: 0.1 mg/kg 4ET-03-053 and the final oxycodone test” value in the data set on Wistar rats was “significant differences”. Moreover, the concentration at 2 hr in data set [2] (male, Sprague-Dawley, rat, brain homogenate, 1 mg/kg, rats, brain homogenate, 2 hr after single PO 1 mg/kg, individual animals (n = 3), read-out: Tissue Homogenate Conc.) turned out to be 9.82 ng/mL; in data set [2] (male, Sprague-Dawley, rat, brain homogenate, 1 mg/kg, rats, brain homogenate, 2 hr after single PO 1 mg/kg, mean, read-out: Tissue Homogenate Conc., Mean) it was 11.8 ng/mL; in data set [2] (male, Sprague-Dawley, rat, brain, 1 mg/kg, rats, brain, 2 hr after single PO 1 mg/kg, read-out: Mean Tissue), 47.2 ng/g; in data set [2] (male, Sprague-Dawley, rat, plasma, 1 mg/kg, rats, plasma, 2 hr after single PO 1 mg/kg, individual animals (n = 3), read-out: Plasma Conc.) it was 506 ng/mL; in data set [2] (male, Sprague-Dawley, rat, plasma, 1 mg/kg, rats, plasma, 2 hr after single PO 1 mg/kg, mean, read-out: Plasma Conc., Mean), 566 ng/mL. In data set [2] (male, Sprague-Dawley, rat, rats, brain to plasma, 2 hr after single PO 1 mg/kg, read-out: Mean Tissue/Plasma Conc. Ratio), the Kp at 2 hr came to 0.083. Moreover, the Kp at 2 h in data set [2] (rat, brain, Sprague-Dawley rats, 2 hr after a single PO dose of 1 mg/kg) is 0.083. The “Tissue Homogenate Conc.” value in data set [2] (rats, brain homogenate, 2 hr after single PO 1 mg/kg, individual animals (n = 3), 1 mg/kg) was 11.4 ng/mL and 14.2 ng/mL. The “Plasma Conc.” value in data set [2] (rats, plasma, 2 hr after single PO 1 mg/kg, individual animals (n = 3), 1 mg/kg) is 539 ng/mL and 652 ng/mL. The IC50 in data set [3] came out at 20.9 nM; in data set [4] it was 10.1 nM.
